Among the data in ChEMBL document CHEMBL5247679, “Novel Quinoline Compounds as KRAS Inhibitors for Treating Cancer” (ACS Med Chem Lett, 2023) are IC50 values, retold here.

A value given as a limit tells only on which side of the number the result lay.

Assay [1] has as its target GTPase KRas (Homo sapiens, UniProt P01116, G12D). The assay can be described thus: Inhibition of KRAS G12D mutant (unknown origin) preincubated for 4 hrs followed by SOS1 addition and measured after 2 hrs by fluorescence based analysis.
The target in assay [2] is GTPase KRas (Homo sapiens, UniProt P01116, G12V). Put plainly: Inhibition of KRAS G12V mutant (unknown origin) preincubated for 4 hrs followed by SOS1 addition and measured after 3 hrs by fluorescence based analysis.
GTPase KRas (Homo sapiens, UniProt P01116, G12V), sequence (P01116 whole entry G12V): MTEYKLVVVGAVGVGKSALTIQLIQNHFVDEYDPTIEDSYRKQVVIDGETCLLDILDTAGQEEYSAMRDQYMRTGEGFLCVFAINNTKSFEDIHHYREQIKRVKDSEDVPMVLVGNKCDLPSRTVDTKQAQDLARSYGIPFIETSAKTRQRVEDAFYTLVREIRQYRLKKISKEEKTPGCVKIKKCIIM

GTPase KRas (Homo sapiens, UniProt P01116, G12D), sequence (P01116 whole entry G12D): as the sequence (P01116 whole entry G12V) above, with V12D counted along it

The term IC50 denotes the concentration that inhibits the measured activity by half. Lower therefore signals greater potency. As to `CN(C)C1(C)CN(c2nc3c(F)c(-c4cccc5ccc(F)cc45)c(CCC#N)cc3c3c2cc(CN2CCOCC2=O)n3[C@@H]2[C@@H]3CN[C@H]2C3)C1`, the IC50 in assay [1] and in assay [2] was ≤ 100 nM throughout.
As to `Cc1nc2c(F)c(-c3cccc(Cl)c3Cl)c(CCC#N)cc2c2c1cc([C@@H](C)NS(=O)(=O)C1CC1)n2[C@H]1[C@H]2CN[C@@H]1C2`, the IC50 in assay [1] and in assay [2] was ≤ 100 nM each time.
Consider `Cc1nc2c(F)c(-c3cccc(Cl)c3Cl)c(CCC#N)cc2c2c1cc([C@@H](C)NC(=O)c1ccncn1)n2[C@H]1[C@H]2CN[C@@H]1C2`, for which the IC50 in assay [1] and in assay [2] was ≤ 100 nM each time.
As to `C[C@H](Oc1nc2c(F)c(-c3csc4ccccc34)c(CCC#N)cc2c2c1cc(CN1CCCC1=O)n2[C@H]1[C@H]2CN[C@@H]1C2)[C@@H]1CCCN1C`, the IC50 in assay [1] and in assay [2] was ≤ 100 nM each time.
Take `Cc1nc2c(F)c(-c3cccc(Cl)c3Cl)c(CCC#N)cc2c2c1cc([C@@H](C)NC(=O)c1cscn1)n2[C@H]1[C@H]2CN[C@@H]1C2`: the 50% inhibitory concentration (IC50) in assay [1] and in assay [2] was ≤ 100 nM in each case.
Regarding `Cc1cc2c(-n3cncn3)nc3c(F)c(-c4cc(O)cc5ccc(Cl)cc45)c(CCC#N)cc3c2n1[C@H]1[C@H]2CN[C@@H]1C2`, the IC50 in assay [1] and in assay [2] was ≤ 100 nM each time.
